Results from ChEMBL document CHEMBL5291721, “A preclinical secondary pharmacology resource illuminates target-adverse drug reaction associations of marketed drugs” (Nat Commun, 2023).

Legend:
[1] = target: T1, Thromboxane A2 receptor (Homo sapiens, UniProt P21731)
T1 sequence (P21731 whole entry): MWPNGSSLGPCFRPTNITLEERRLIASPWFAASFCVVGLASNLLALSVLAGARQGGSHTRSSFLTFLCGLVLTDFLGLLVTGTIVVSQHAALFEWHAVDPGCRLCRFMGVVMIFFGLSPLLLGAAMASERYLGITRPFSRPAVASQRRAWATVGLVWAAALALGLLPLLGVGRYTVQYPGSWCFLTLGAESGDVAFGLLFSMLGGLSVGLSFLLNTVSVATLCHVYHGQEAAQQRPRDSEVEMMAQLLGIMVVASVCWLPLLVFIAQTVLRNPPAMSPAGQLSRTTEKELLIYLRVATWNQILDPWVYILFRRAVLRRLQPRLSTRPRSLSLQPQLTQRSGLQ

[2] = target: 5-hydroxytryptamine receptor 2A (Homo sapiens, UniProt P28223); assay type: functional, cell-based
[3] = target: Beta-1 adrenergic receptor (Homo sapiens, UniProt P08588); assay type: functional
[4] = target: T2, B2 bradykinin receptor (Homo sapiens, UniProt P30411)
T2 sequence (P30411 whole entry): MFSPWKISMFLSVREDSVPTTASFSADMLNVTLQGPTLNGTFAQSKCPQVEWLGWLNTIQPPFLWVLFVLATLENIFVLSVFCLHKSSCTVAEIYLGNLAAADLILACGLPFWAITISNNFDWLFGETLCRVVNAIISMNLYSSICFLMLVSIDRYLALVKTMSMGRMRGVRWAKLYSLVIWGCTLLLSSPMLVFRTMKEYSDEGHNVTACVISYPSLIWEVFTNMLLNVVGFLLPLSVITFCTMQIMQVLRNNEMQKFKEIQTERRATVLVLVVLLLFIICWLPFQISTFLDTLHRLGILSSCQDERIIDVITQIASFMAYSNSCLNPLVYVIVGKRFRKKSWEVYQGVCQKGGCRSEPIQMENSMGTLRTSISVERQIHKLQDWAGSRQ

[5] = target: T3, Endothelin-1 receptor (Homo sapiens, UniProt P25101)
T3 sequence (P25101 whole entry): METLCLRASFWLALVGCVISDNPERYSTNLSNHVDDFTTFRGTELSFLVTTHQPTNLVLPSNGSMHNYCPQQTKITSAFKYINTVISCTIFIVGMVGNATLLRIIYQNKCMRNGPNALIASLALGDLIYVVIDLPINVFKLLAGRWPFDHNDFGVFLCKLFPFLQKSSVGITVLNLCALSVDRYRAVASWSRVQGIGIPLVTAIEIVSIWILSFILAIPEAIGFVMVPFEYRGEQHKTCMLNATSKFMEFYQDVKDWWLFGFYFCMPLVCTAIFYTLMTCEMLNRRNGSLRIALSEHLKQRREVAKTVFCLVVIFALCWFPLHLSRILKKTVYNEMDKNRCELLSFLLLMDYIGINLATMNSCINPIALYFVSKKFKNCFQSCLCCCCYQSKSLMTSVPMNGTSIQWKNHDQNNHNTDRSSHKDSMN

[6] = target: Voltage-dependent L-type calcium channel subunit alpha-1C (Rattus norvegicus, UniProt P22002); assay type: functional
[7] = target: T4, Equilibrative nucleoside transporter 1 (Homo sapiens, UniProt Q99808)
T4 sequence (Q99808 whole entry): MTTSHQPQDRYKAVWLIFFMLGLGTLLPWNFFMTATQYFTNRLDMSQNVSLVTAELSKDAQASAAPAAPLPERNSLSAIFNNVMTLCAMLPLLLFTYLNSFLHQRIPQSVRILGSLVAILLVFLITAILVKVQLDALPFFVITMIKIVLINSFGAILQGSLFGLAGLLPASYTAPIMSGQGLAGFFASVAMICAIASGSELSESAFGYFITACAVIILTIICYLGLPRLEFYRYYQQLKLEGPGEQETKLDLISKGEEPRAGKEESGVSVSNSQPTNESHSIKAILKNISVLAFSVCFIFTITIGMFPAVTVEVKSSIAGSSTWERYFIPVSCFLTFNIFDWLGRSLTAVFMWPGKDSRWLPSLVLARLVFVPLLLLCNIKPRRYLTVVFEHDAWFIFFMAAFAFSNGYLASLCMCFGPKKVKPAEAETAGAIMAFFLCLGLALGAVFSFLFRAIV

[8] = target: T5, Gastrin/cholecystokinin type B receptor (Homo sapiens, UniProt P32239)
T5 sequence (P32239 whole entry): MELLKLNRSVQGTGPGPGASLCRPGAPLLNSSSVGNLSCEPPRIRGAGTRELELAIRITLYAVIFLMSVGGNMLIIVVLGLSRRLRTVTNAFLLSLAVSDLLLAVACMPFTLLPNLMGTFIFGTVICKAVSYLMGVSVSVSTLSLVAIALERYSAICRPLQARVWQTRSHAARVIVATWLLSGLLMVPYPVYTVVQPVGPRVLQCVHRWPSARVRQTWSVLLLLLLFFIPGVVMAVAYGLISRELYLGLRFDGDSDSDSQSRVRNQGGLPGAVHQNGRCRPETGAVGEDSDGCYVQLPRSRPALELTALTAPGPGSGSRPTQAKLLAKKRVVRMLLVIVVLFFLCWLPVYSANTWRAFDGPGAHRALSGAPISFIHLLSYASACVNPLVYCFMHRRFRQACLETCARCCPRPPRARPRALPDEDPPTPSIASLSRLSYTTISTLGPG

[9] = target: T6, Type-1 angiotensin II receptor (Homo sapiens, UniProt P30556)
T6 sequence (P30556 whole entry): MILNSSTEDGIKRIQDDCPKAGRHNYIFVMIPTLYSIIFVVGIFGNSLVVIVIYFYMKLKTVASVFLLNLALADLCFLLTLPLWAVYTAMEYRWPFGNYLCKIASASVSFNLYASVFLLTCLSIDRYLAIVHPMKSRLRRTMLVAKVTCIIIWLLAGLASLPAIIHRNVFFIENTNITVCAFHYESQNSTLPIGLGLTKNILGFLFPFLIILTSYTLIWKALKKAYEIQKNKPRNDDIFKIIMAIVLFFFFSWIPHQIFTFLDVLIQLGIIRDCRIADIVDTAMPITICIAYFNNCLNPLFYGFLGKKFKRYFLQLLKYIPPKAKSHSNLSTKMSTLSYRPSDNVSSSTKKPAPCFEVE
Note: assay procedure not described here.

Chain of 5-hydroxytryptamine receptor 2A (P28223 whole entry): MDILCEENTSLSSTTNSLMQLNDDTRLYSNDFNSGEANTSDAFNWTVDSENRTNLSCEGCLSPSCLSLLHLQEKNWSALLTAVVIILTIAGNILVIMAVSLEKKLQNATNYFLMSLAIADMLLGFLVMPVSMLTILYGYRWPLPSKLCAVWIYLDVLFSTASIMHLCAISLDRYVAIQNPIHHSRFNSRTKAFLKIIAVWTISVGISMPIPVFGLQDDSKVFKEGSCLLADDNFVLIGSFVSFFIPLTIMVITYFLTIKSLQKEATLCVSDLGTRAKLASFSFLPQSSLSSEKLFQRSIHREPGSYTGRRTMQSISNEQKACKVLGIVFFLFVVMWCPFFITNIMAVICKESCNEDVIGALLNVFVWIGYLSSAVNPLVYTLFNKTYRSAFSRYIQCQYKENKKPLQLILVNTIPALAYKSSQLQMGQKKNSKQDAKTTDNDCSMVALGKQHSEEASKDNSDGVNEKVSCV
Chain of Voltage-dependent L-type calcium channel subunit alpha-1C (P22002 whole entry): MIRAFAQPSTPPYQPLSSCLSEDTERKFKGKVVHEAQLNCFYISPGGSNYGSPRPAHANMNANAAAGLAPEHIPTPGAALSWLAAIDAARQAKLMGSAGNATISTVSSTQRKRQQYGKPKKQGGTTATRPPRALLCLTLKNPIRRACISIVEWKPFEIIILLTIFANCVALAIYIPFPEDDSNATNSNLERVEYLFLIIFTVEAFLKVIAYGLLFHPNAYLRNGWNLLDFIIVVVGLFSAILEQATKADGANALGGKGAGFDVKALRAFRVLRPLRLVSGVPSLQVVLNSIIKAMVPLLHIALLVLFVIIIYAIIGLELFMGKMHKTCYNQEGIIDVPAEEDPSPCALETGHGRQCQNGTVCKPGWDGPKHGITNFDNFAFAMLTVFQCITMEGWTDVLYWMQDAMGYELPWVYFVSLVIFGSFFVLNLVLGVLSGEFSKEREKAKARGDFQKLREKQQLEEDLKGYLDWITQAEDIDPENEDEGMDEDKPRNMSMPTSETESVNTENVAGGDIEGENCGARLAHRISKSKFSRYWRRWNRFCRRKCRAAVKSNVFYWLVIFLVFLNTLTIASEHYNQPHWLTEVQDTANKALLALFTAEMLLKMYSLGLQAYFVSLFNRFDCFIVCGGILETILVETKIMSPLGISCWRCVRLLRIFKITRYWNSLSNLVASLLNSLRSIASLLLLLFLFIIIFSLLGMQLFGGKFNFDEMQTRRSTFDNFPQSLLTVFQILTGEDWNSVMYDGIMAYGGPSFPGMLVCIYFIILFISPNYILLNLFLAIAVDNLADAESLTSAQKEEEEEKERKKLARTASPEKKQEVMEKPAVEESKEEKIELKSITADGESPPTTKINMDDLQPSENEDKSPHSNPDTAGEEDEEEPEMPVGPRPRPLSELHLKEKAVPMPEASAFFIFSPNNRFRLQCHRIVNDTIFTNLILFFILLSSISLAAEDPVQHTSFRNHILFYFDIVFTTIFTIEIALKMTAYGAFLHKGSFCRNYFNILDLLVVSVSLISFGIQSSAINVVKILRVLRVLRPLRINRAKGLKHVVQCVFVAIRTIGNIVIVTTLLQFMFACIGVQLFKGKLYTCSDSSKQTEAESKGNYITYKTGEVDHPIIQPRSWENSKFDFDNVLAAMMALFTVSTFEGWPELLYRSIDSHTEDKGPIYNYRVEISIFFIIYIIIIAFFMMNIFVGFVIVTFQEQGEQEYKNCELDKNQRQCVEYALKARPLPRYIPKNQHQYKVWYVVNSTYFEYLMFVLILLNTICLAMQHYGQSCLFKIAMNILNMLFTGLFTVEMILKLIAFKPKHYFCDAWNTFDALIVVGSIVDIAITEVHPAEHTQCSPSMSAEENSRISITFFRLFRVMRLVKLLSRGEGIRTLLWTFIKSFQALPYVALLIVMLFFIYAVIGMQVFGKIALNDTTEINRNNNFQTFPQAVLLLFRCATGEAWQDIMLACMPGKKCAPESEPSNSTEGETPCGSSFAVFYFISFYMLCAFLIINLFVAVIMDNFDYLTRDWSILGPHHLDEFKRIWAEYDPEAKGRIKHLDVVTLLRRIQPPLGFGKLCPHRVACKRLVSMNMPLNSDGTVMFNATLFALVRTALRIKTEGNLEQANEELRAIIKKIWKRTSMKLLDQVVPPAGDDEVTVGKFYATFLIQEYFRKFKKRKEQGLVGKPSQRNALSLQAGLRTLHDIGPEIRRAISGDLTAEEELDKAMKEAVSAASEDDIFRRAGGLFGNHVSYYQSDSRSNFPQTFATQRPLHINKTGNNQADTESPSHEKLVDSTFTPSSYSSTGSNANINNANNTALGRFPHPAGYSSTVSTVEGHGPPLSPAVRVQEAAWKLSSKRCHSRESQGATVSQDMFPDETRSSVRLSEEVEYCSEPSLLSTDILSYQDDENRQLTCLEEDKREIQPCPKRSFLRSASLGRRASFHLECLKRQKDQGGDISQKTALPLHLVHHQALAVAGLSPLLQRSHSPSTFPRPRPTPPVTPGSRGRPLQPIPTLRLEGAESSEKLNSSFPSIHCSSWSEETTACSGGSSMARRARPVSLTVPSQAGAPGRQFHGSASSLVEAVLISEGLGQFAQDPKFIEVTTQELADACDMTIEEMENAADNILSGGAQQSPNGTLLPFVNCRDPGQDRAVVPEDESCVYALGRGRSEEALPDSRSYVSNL
Chain of Beta-1 adrenergic receptor (P08588 whole entry): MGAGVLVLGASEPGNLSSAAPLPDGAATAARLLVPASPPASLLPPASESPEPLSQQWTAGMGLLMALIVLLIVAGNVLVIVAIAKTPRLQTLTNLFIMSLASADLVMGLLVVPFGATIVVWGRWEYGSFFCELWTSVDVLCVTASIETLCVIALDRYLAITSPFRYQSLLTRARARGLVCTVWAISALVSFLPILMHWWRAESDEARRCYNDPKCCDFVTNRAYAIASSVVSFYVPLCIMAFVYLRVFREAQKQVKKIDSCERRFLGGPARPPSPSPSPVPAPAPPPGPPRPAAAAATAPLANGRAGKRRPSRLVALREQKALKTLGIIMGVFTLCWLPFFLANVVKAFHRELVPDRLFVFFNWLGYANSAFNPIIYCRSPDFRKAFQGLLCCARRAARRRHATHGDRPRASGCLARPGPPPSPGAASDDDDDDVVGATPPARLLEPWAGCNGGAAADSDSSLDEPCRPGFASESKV

Structure (SMILES) | AC50 [1] [µM] | AC50 [2] [µM] | AC50 [3] [µM] | AC50 [4] [µM] | AC50 [5] [µM] | AC50 [6] [µM] | AC50 [7] [µM] | AC50 [8] [µM] | AC50 [9] [µM]
O=C(O)c1cccc(-c2noc(-c3ccccc3F)n2)c1 | > 30 |  |  |  |  |  |  |  | 
CO/N=C(\C(=O)N[C@@H]1C(=O)N2C(C(=O)OCOC(=O)C(C)(C)C)=C(C)CS[C@H]12)c1csc(N)n1 |  | > 30 |  |  |  |  |  |  | 
NS(=O)(=O)c1cc(-c2nnn[nH]2)c(NCc2cccs2)cc1Cl [AZOSEMIDE] | > 30 | > 30 | > 30 | > 30 | > 30 | > 30 | > 30 | > 30 | > 30
O=C(Cn1ccnc1[N+](=O)[O-])NCc1ccccc1 [BENZNIDAZOLE] | > 30 | > 30 | > 30 | > 30 | > 30 | > 30 | > 30 | > 30 | > 30
C[N+](C)(C)CC(=O)O [BETAINE] | > 30 | > 30 | > 30 | > 30 | > 30 | > 30 | > 30 | > 30 | > 30
CCCC(=O)N1CCCN(c2nc(N)c3cc(OC)c(OC)cc3n2)CC1 [BUNAZOSIN] |  | > 30 | > 30 | > 30 | > 30 |  | > 30 | > 30 | > 30
C[N+](C)(C)CCOC(N)=O [CARBAMOYLCHOLINE] | > 10 |  | > 10 | > 10 |  | > 10 | > 10 |  | > 10
N[C@@H](CSCC(=O)O)C(=O)O [CARBOCYSTEINE] | > 30 | > 30 | > 30 | > 30 | > 30 | > 30 | > 30 | > 30 | > 30
COCC1=C(C(=O)OC(C)OC(=O)OC(C)C)N2C(=O)[C@@H](NC(=O)/C(=N\OC)c3csc(N)n3)[C@H]2SC1 (stereo partly specified) [CEFPODOXIME PROXETIL] |  | > 30 |  |  |  |  |  |  | 
NS(=O)(=O)c1cc2c(cc1Cl)NC(CC1CCCC1)NS2(=O)=O (stereo unspecified) [CYCLOPENTHIAZIDE] |  | > 30 |  |  |  |  |  |  | 
CN(C)[C@@H]1C(O)=C(C(N)=O)C(=O)[C@@]2(O)C(O)=C3C(=O)c4c(O)ccc(Cl)c4[C@@H](O)[C@H]3C[C@@H]12 [DEMECLOCYCLINE] | > 10 | > 10 | > 10 | > 10 |  | > 10 | > 10 |  | > 10
NS(=O)(=O)c1cc(Cl)c(Cl)c(S(N)(=O)=O)c1 [DICHLORPHENAMIDE] | > 10 | > 10 | > 10 | > 10 |  | > 10 | > 10 |  | > 10
O=C(Nc1ccccc1)OCC(CN1CCCCC1)OC(=O)Nc1ccccc1 (stereo unspecified) [DIPERODON] | > 30 | > 30 | > 10 | > 30 | > 30 |  | > 30 | > 30 | > 30
N/N=c1/cc2c(n[nH]1)CCN(C(=O)c1ccccc1)C2 [ENDRALAZINE] |  | > 30 |  |  |  |  |  |  | 
CC(C(O)c1ccc(O)cc1)N1CCC(Cc2ccccc2)CC1 (stereo unspecified) [IFENPRODIL] | > 30 | 9.6 | 23 | > 30 | > 30 | > 30 |  | > 30 | > 30
CC(=O)N(CC(O)CO)c1c(I)c(C(=O)NCC(O)CO)c(I)c(C(=O)NCC(O)CO)c1I (stereo unspecified) [IOHEXOL] | > 30 | > 30 | > 30 | > 30 |  | > 10 | > 30 | > 30 | > 30
CN1C(=O)N(C)C2C1N(C)C(=O)N2C (stereo unspecified) [MEBICAR] |  | > 30 |  |  |  |  |  |  | 
CC(=O)O[C@]1(C(C)=O)CC[C@H]2[C@@H]3C[C@H](C)C4=CC(=O)CC[C@]4(C)[C@H]3CC[C@@]21C [MEDROXYPROGESTERONE ACETATE] |  |  | > 30 | > 30 | > 30 |  | > 30 | > 30 | > 30
CN(C/C=C/c1ccccc1)Cc1cccc2ccccc12 [NAFTIFINE] | > 30 |  | > 30 | > 30 |  | > 10 | > 30 | > 30 | > 30
CC(C)NCC1CCc2cc(CO)c([N+](=O)[O-])cc2N1 (stereo unspecified) [OXAMNIQUINE] | > 10 | > 30 | > 10 | > 10 |  | > 10 | > 30 |  | > 10
Nc1ccc(/N=N/c2ccccc2)c(N)n1 [PHENAZOPYRIDINE] |  | > 30 |  |  |  |  |  |  | 
CN(C)CCCN1c2ccccc2Sc2ccccc21 [PROMAZINE] | > 30 |  | > 10 | > 30 | > 30 | > 10 | > 30 | > 30 | > 10
O=P(O)(O)C(O)(Cc1cccnc1)P(=O)(O)O [RISEDRONIC ACID] | > 30 |  | > 30 | > 30 | > 30 | > 30 | > 30 | > 30 | > 30
O=C1CCC(N2C(=O)c3ccccc3C2=O)C(=O)N1 (stereo unspecified) [THALIDOMIDE] | > 30 |  | > 10 | > 30 | > 30 | > 10 | > 30 | > 30 | > 30
CC(=O)N[C@H]1[C@H]([C@H](O)[C@H](O)CO)OC(C(=O)O)=C[C@@H]1N=C(N)N [ZANAMIVIR] | > 30 | > 30 | > 30 | > 30 |  | > 30 | > 30 | > 30 | > 30
